Where a name gives a salt, the structure may show the parent alone. Read-outs that look alike come from different tables or passages of the source.
How the values were obtained:
Assay in all cases: In vitro antibiotic activity, 2-fold agar dilution method
Type in all cases: cell-based
Sal. typhimurium Ed #9 = conditions: Salmonella enterica
Experimental: (§1) The in vitro antibiotic activity is determined by a 2-fold agar dilution method using 10 ml. per petri plate of Mueller-Hinton agar. The agar is inoculated with one loopful (0.001 ml. loop) of a 1:10 dilution of a 24 hour broth culture of the indicated test organism and incubated at 37° C. for 24 hours. Minimum inhibitory concentrations (MIC) are expressed as mcg/ml.

Strep. faecalis 10541 = tested on: Strep. faecalis 10541
Experimental: as §1

Proteus vulgaris JJ = tested on: Proteus vulgaris JJ
Experimental: as §1

Shigella sonnei 9290 = conditions: Mueller-Hinton agar, 37° C., 24 hours
Experimental: as §1

E. coli R3 = conditions: Escherichia coli
Experimental: as §1

[1] = tested on: Bacillus subtilus U. Ill. 10707
Experimental: as §1

Pseudo aeruginosa = tested on: Pseudo aeruginosa
Experimental: as §1

Staph aureus Smith = conditions: Staphylococcus aureus
Experimental: as §1

Kleb. pneumoniae KY 4262 = conditions: Klebsiella pneumoniae
Experimental: as §1

E. coli Juhl = conditions: Escherichia coli
Experimental: as §1

[2] = Sal. typhimurium Ed #9, Mueller-Hinton agar, 37° C., 24 hours, read-out: MIC
[3] = Enterococcus faecalis, Strep. faecalis 10541, Mueller-Hinton agar, 37° C., 24 hours, read-out: MIC
[4] = Proteus vulgaris JJ, Mueller-Hinton agar, 37° C., 24 hours, read-out: MIC
[5] = E. coli R3, Mueller-Hinton agar, 37° C., 24 hours, read-out: MIC
[6] = Bacillus subtilus U. Ill. 10707, Mueller-Hinton agar, 37° C., 24 hours, read-out: MIC
[7] = Pseudo aeruginosa, Mueller-Hinton agar, 37° C., 24 hours, read-out: MIC
[8] = Staph aureus Smith, Mueller-Hinton agar, 37° C., 24 hours, read-out: MIC
[9] = KY4262, Kleb. pneumoniae KY 4262, Mueller-Hinton agar, 37° C., 24 hours, read-out: MIC
[10] = E. coli Juhl, Mueller-Hinton agar, 37° C., 24 hours, read-out: MIC

SMILES	MIC (Sal. typhimurium Ed #9; [2]) [µg/mL]	MIC (Strep. faecalis 10541; [3]) [µg/mL]	MIC (Proteus vulgaris JJ; [4]) [µg/mL]	MIC (Shigella sonnei 9290) [µg/mL]	MIC (E. coli R3; [5]) [µg/mL]	MIC [1, 6] [µg/mL]	MIC (Pseudo aeruginosa; [7]) [µg/mL]	MIC (Staph aureus Smith; [8]) [µg/mL]	MIC (Kleb. pneumoniae KY 4262; [9]) [µg/mL]	MIC (E. coli Juhl; [10]) [µg/mL]	MIC (Sal. typhimurium Ed #9; TYPHIMURIUM, 24 h) [µg/mL]	MIC (Strep. faecalis 10541; Enterococcus faecalis, 10541, 24 h) [µg/mL]	MIC (Proteus vulgaris JJ; Proteus vulgaris, 24 h) [µg/mL]	MIC (E. coli R3; R3, 24 h) [µg/mL]	MIC ([1]; Bacillus, U.ILL.10707, 24 h) [µg/mL]	MIC (Pseudo aeruginosa; 24 h) [µg/mL]	MIC (Staph aureus Smith; 24 h) [µg/mL]	MIC (Kleb. pneumoniae KY 4262; KY4262, 24 h) [µg/mL]	MIC (E. coli Juhl; 24 h) [µg/mL]
COC1C(O)C(N)C(OC2OC(C(C)N)CCC2N)C(O)C1N(C)C(=O)[C@@H](O)CCN (stereo partly drawn) [4-N-L-(2-hydroxy-4-amino)butyrylfortimicin E tetrahydrochloride salt]	100	> 100	> 100	> 100	> 100	12.5	> 100	25	50	50									
COC1C(O)C(N)C(OC2OC(C(C)N)CCC2N)C(O)C1N(C)C(=O)CN (stereo not shown) [4-N-glycylfortimicin E tetrahydrochloride salt]				25							25	> 100	> 100	> 100	12.5	> 100	6.25	25	6.25
COC1C(O)C(N)C(OC2OC(C(C)N)CCC2N)C(O)C1N(C)C(=O)CCN (stereo not drawn) [4-N-β-alanylfortimicin E tetrahydrochloride salt]	25	> 100	> 100	> 100	> 100	12.5	> 100	12.5	25	25									
CNCC(=O)N(C)C1C(O)C(OC2OC(C(C)N)CCC2N)C(N)C(O)C1OC (stereo not shown) [4-N-sarcosylfortimicin E tetrahydrochloride salt]	50	> 100	> 100	100	> 100	6.25	> 100	25	100	50									

From US4183920A, “4-N-Acyl, 2'-N-acyl and 4,2'-N,N'-diacylfortimicin E derivatives” (Abbott Laboratories, priority 1977, dated 1980)
